“And” between values parts separate entries of the source, which are not always exact repeats. Equal values may be shown once. Read-outs that look alike come from different tables or passages of the source.
Columns and labels:
[1] = system: superoxide dismutase (SOD); assay: SOD activity in cell lysate (epinephrine auto-oxidation); assay type: cell-based, bovine
Procedure: Cells pretreated with different concentrations of E2 for 24 hours were harvested in a solution containing 50 mM Tris-HCl (pH 7.4), 1 mM EDTA, 2 μg/ml pepstatin A, 10 μg/ml benzamidine, and 10 μg/ml trypsin inhibitor. The cells were then lysed on ice by sonication at a setting of 50 mW, with 3×15 set cycles using a Cole-Parmer Ultrasonic Homogenizer (Chicago, Ill.). Protein concentrations in the samples were determined by the Bradford method with bovine serum albumin as a standard (Bradford, Anal. Biochem. 72:248-254, 1976).
SOD activity was determined by a method based on the ability of SOD to suppress epinephrine auto-oxidation (Misra and Fridovich, J.Biol. Chem. 247:3170-3175, 1972). One unit of SOD activity is defined as the amount of protein that inhibits the oxidation of epinephrine by 50%. Briefly, 100 μl of 10×-diluted cell homogenate (about 10 μg protein) was added to 900 μl of carbonate buffer (0.1 M NaHCO3, 0.1 M Na2CO3, 0.1 mM EDTA, pH 10.2) containing 0.7 mM of epinephrine. The absorbency of the mixture was measured for 4 minutes at 480 nm using a Hitachi U-2000 spectrophotometer (Hitachi, San Jose, Calif.).

cardiomyocytes = settings: cited from earlier work
female and male bAECs = assay type: cell-based, bovine; settings: for mean DCFH fluorescence: separate set of donors, 45-minute paraquat exposure
Procedure: For flow cytometric analysis (after E2 treatment), female and male bAECs were trypsinized, rinsed, and resuspended in PBS containing 2% BSA at a density of 5×10^5 cells/ml. The cells were loaded with dichlorofluorescin diacetate (Molecular Probes, Eugene, Oreg.) (dissolved in DMSO) at 5 μg/ml for 15 minutes followed by paraquat insult (1 mM) at room temperature in the dark. At the designated times, aliquots were withdrawn, placed on ice, and the fluorescence of oxidized DCFH was analyzed by a FACSCalibur™ flow cytometer (Becton-Dickinson, San Jose, Calif.) equipped with an argon laser. A collection filter for the green emission of oxidized DCFH (530/30 nm) was used. Fluorescence signal was collected in log mode and analyzed using Cellquest™ software (Becton-Dickinson).
SOD can dismutate the superoxide radical to hydrogen peroxide, which is subsequently detoxified by CAT or GPX. […] This theory was tested by comparing the level of ROS in female and male bAECs during subsequent oxidant exposure. Following E2 treatment for 24 hours, cells were loaded with dichlorofluorescein diacetate, which penetrates their plasma membranes and is converted to 2′,7′-dichlorofluorescein (DCFH) by intracellular esterases. This nonfluorescent compound, once oxidized by ROS such as hydrogen peroxide, turns to a highly fluorescent derivative.

[2] = system: bovine aortic endothelial cells (bAECs)
Procedure: Prior to E2 pretreatment, cells were grown in phenol red-free DMEM supplemented with 10% dextran/charcoal-stripped FBS for at least 1 passage (3-4 days). Phenol red-free Dulbecco's modified medium was used to avoid potential estrogenic interference. Serum steroid deprivation was conducted according to the conditions described by Yeh et al. (Proc. Natl. Acad. Sci. USA 95:5527-5532, 1998). The E2 level in the stripped serum was assayed using an [^125I] 17β-estradiol radioimmunoassay kit (TKE21, Diagnostic Products Corporation, Los Angeles, Calif.). […] The cells grown in E2-free environments were plated onto Falcon 24-well Primariae™ plates at a density of 5×10^4 cells/well. E2 in dimethylsulfoxide (DMSO) was added to each well at final concentrations ranging from 1 nM to 10 μM 3 hours after plating, and the cells were then incubated for 24 hours (a duration commonly used for the studies of the genomic effects of E2) at 37° C. Control cells were treated with a corresponding amount of DMSO (a final concentration 0.05%).
To study the difference between male and female cells in their response to E2, bAECs from male and female animals were treated with various concentrations of E2 for 24 hours and then challenged with paraquat (1,1′-dimethyl-4,4′-bipyridinium dichloride, methyl viologen). Paraquat was used because it generates the superoxide anion O2 in living cells. […] Accordingly, E2 ranging in concentration from 1 nM to 10 μM was used in these studies.

SMILES: C[C@]12CC[C@@H]3c4ccc(O)cc4CC[C@H]3[C@@H]1CC[C@@H]2O [E2, 17β-estradiol]
- SOD activity elevation relative to untreated cells ([1]; 1 nM E2 pretreatment (Example 8)): approximately 4 fold
- SOD activity increase ([1]; female bAECs, 24 h 1 nM E2 (Example 12)): about 4 fold
- effect on high K+-induced Ca++ loading or hypercontracture (cardiomyocytes): prevent high K+-induced intracellular Ca++ loading or hypercontracture
- mean fluorescence intensity of oxidized DCFH (female and male bAECs): 795 and 1323
- basal level of DCFH oxidation, female vs male (female and male bAECs; E2-pretreated cells, before paraquat): similar
- mean DCFH fluorescence (female and male bAECs; female bAECs): 1002
- mean DCFH fluorescence (female and male bAECs; male bAECs): 1581
- E2 concentration that suppressed growth ([2]; both, bovine, 24 h): ≥ 100 µM
- E2 concentration that significantly inhibited endothelial cell growth ([2]; female, bovine, 24 h): ≥ 100 µM
- cell count without subsequent paraquat exposure ([2]; groups pretreated with various doses of E2, comparable among groups, average): 3.1×10^5 per well

From US20020164581A1 (priority 2001, published 2002)
